{"source": "patent US20160039914A1", "about": "(priority 2013, published 2016)", "key": {"MRSA strain 38": {"test_system": "MRSA strain 38", "set-up": "species or system S. aureus", "details": "in vivo"}, "[1]": {"test_system": "S. aureus (MRSA strain 38)", "details": "in vivo, iv"}}, "data": [{"smiles": "CN[C@H](CC(C)C)C(=O)N[C@H]1C(=O)N[C@@H](CC(N)=O)C(=O)N[C@H]2C(=O)N[C@H]3C(=O)N[C@H](C(=O)N[C@H](C(=O)O)c4cc(O)cc(O)c4-c4cc3ccc4O)[C@H](O)c3ccc(c(Cl)c3)Oc3cc2cc(c3O[C@@H]2O[C@H](CO)[C@@H](O)[C@H](O)[C@H]2O[C@H]2C[C@](C)(N)[C@H](O)[C@H](C)O2)Oc2ccc(cc2Cl)[C@H]1O", "note": "[vancomycin]", "values": [{"measurement": "mIL-1ra level in abscess fluid", "setting": "MRSA strain 38", "result": "not significantly reduced"}, {"measurement": "mIL-6 level in abscess fluid", "setting": "MRSA strain 38", "result": "not significantly reduced"}, {"measurement": "neutrophil and eosinophil counts", "setting": "MRSA strain 38", "result": "lower"}, {"measurement": "IFN-γ in serum", "setting": "[1]", "result": "2.98 ± 1.64"}, {"measurement": "IL-1β in serum", "setting": "[1]", "result": "3.51 ± 1.08"}, {"measurement": "IL-6 in serum", "setting": "[1]", "result": "379.72 ± 335.45"}, {"measurement": "IL-10 in serum", "setting": "[1]", "result": "16.75 ± 6.67"}, {"measurement": "IL-12p70 in serum", "setting": "[1]", "result": "61.55 ± 23.71"}, {"measurement": "KC/GRO in serum", "setting": "[1]", "result": "260.69 ± 122.01"}, {"measurement": "TNF-α in serum", "setting": "[1]", "result": "1.46 ± 0.68"}]}]}
